We go through 22 compounds from patent US8946234B2, “Halogen-substituted compounds” (Bayer CropScience AG, priority 2008, dated 2015).

One data set is described as follows: physchem. Format: physicochemical.
Conditions: not given
In outline: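 Following EEC Directive 79/831 Annex V.A8, logP is obtained from retention on a 1.8 micron C18 column (50×4.6 mm) at 55 °C and 2.0 ml/min. Elution ran 10→95% acetonitrile (0.1% formic acid) against water (0.09% formic acid) in 4.25 min, held 1.25 min; mass detection used.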
With `O=C(NCC(F)(F)F)c1cc(NC(=O)c2cnc(C(F)(F)C(F)(F)F)nc2C(F)(F)F)ccc1Cl` [Ib-9], the logP was 3.53^a).

Turning to `Cn1nc(C(F)(Cl)C(F)(F)F)c(Br)c1C(=O)Nc1ccc(Cl)c(C(=O)NC2CC2)c1` (centres unmarked) [Ik-16], the logP is listed as 3.35^a).

Turning to `CSc1c(F)cc(NC(=O)c2c(C(F)(F)F)c(C(F)(F)C(F)(F)F)nn2C)cc1C(=O)NCC(F)(F)F` [Ik-193], the logP is recorded as 3.90^a).

Take `Cn1nc(C(F)(F)C(F)(F)F)c(C(F)(F)F)c1C(=O)Nc1ccc2c(c1)C(=O)OC2` [Ik-106]: the logP is 3.20^a).

`CCc1c(C(F)(F)C(F)(F)F)nn(C)c1C(=O)Nc1cccc(C(=O)NC2CC2)c1` [Ik-263]: the logP was 3.05^a).

As for `Cn1nc(C(F)(F)C(F)(F)F)c(C(F)(F)F)c1C(=O)Nc1cc(F)c(I)c(C(=O)NCc2ccccc2)c1` [Ik-227], the logP is 4.20^a).

For the compound `Cn1nc(-c2ccc(C(F)(F)F)cc2)c(Br)c1C(=O)Nc1ccc(Cl)c(C(=O)NC2CC2)c1` [Ik-249], the logP was 3.63^a).

Consider `CCn1nc(C(F)(F)C(F)(F)F)c(C(F)(F)F)c1C(=O)Nc1ccc(Cl)c(C(=O)NCC(F)(F)F)c1` [Ik-216], for which the logP is 3.93^a).

Consider `Cn1nc(OC(F)F)c(I)c1C(=O)Nc1ccc(Cl)c(C(=O)NCC(F)(F)F)c1` [Ik-241], for which the logP is 2.92^a).

Take `Cn1nc(C(F)(F)C(F)(F)F)c(C(F)(F)F)c1C(=O)Nc1cc(Cl)c(I)c(C(=O)NCc2ccccc2)c1` [Ik-205]: the logP is reported as 4.45^a).

In the case of `Cn1nc(C(F)(F)C(F)(F)F)c(C(F)(F)F)c1C(=O)Nc1cc(F)c(I)c(C(=O)NC2CC2)c1` [Ik-225], the logP is on record as 3.63^a).

On to `CSc1c(F)cc(NC(=O)c2c(C(F)(F)F)c(C(F)(F)C(F)(F)F)nn2C)cc1C(=O)NCc1ccccc1` [Ik-192], for which the logP is 4.15^a).

For the compound `CSc1c(Cl)cc(NC(=O)c2c(C(F)(F)F)c(C(F)(F)C(F)(F)F)nn2C)cc1C(=O)NCC(F)(F)F` [Ik-203], the logP is recorded as 4.15^a).

`Cn1nc(C(F)(F)C(F)(F)F)c(C(F)(F)F)c1C(=O)Nc1cc(C(=O)NCc2ccccc2)c(Cl)cc1Cl` [Ik-150]: the logP was 4.23^a).

Regarding `Cn1nc(C(F)(F)C(F)(F)F)c(Br)c1C(=O)Nc1ccc(Cl)c(C(=O)NCC=CCl)c1` [Ik-28], the logP is 3.64^a).

In the case of `Cn1nc(C(F)(F)C(F)(F)F)c(C(F)(F)F)c1C(=O)Nc1ccc(OC(F)F)c(C(=O)NC2CC2)c1` [Ik-25], the logP is 3.49^a).

In the case of `Cn1nc(C(F)(F)C(F)(F)F)c(C(F)(F)F)c1C(=O)Nc1cc(C(=O)NC2CC2)c(Cl)cc1Cl` [Ik-147], the logP is recorded as 3.61^a).

The same data set, now with this note: HPLC method a), eluent acetonitrile/water with formic acid; read-out: logP.
As for `Cn1nc(C(F)(F)C(F)(F)C(F)(F)C(F)(F)F)c(Br)c1C(=O)O` [4-Bromo-1-methyl-3-nonafluorobutyl-1H-pyrazole-5-carboxylic acid], the chromatographic logP was determined as 3.17.

`Cn1ccc(C(F)(F)C(F)(F)C(F)(F)C(F)(F)F)n1` [1-Methyl-3-nonafluorobutyl-1H-pyrazole]: the chromatographic logP is 3.38.

The same data set, now with this note: HPLC phase inversion (reversed-phase) C18 column, HPLC method a), eluent acetonitrile/water with formic acid; read-out: logP.
For `Cn1ccc(C(F)(F)OC(F)(F)OC(F)(F)F)n1` [3-{[Difluoro(trifluoromethoxy)methoxy](difluoro)methyl}-1-methyl-1H-pyrazole], the chromatographic logP stood at 3.79.

Turning to `Cn1nc(C(F)(F)C(F)(F)F)c(C(F)(F)F)c1C(=O)Nc1ccnc(C(=O)NC2CC2(F)F)c1` (centres unmarked) [Ik-130, N-[2-(2,2-Difluorocycloprop-1-ylcarbamoyl)pyrid-4-yl]-1-methyl-3-(pentafluoroethyl)-4-(trifluoromethyl)-1H-pyrazole-5-carboxamide], the chromatographic logP is 3.59.

Take `Cc1nc(C(=O)Nc2ccc(Cl)c(C(=O)NC3CC3)c2)c(C(F)(F)F)c(C(F)(F)C(F)(F)F)n1` [Ia-1, N-[4-Chloro-3-(cyclopropylcarbamoyl)phenyl]-2-methyl-6-(pentafluoroethyl)-5-(trifluoromethyl)pyrimidine-4-carboxamide]: the chromatographic logP came to 3.33.

Still in this data set, the particulars now being: HPLC phase inversion (reversed-phase) C18 column, HPLC on C18 phase inversion column, method a); read-out: logP.
Regarding `Cn1nc(C(F)(F)C(F)(F)F)c(C(F)(F)F)c1C(=O)Nc1ccnc(C(=O)NC2CC2(F)F)c1` (centres unmarked) [Ik-130, N-[2-(2,2-Difluorocycloprop-1-ylcarbamoyl)pyrid-4-yl]-1-methyl-3-(pentafluoroethyl)-4-(trifluoromethyl)-1H-pyrazole-5-carboxamide], the chromatographic logP was 3.59.
